# Data as given in ChEMBL document CHEMBL1124638, “2,4-Diamino-5-benzylpyrimidines and analogues as antibacterial agents. 10. 2,4-Diamino-5-(6-quinolylmethyl)- and -[(tetrahydro-6-quinolyl)methyl]pyrimidine derivatives. Further specificity studies” (J Med Chem, 1989).
# Key:
# [1] = system: Klebsiella aerogenes; experiment: Comparative in vitro antibacterial activity with trimethoprim against Enterobacter aerogenes 2200/86; assay type: functional
# [2] = Comparative in vitro antibacterial activity with trimethoprim against Salmonella typhi CN512; assay type: functional, salmonella typhosa
# [3] = system: Streptococcus pyogenes; experiment: Comparative in vitro antibacterial activity of compound with trimethoprim against Streptococcus pyogenes CN10; assay type: functional
# [4] = system: Salmonella typhimurium; experiment: Comparative in vitro antibacterial activity with trimethoprim against Salmonella Typhimurium S 8587; assay type: functional, Salmonella enterica subsp. enterica serovar Typhimurium; details: Salmonella enterica
# [5] = biological target: T1, Dihydrofolate reductase (Rattus norvegicus, UniProt Q920D2); experiment: Inhibitory activity against dihydrofolate reductase in rat liver; details: read-out: I50
# T1 sequence (Q920D2 whole entry): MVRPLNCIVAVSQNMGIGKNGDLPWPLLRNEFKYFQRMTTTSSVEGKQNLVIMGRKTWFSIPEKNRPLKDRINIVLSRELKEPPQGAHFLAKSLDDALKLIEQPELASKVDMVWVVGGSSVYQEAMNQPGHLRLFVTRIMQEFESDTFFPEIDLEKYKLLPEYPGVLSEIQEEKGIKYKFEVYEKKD
# [6] = system: Escherichia coli; experiment: Comparative in vitro antibacterial activity with trimethoprim against Escherichia coli CN314; assay type: functional
# [7] = system: Bordetella bronchiseptica; experiment: Comparative in vitro antibacterial activity with trimethoprim against Bordetella bronchiseptica CN385; assay type: functional
# [8] = system: Pasteurella multocida; experiment: Comparative in vitro antibacterial activity with trimethoprim against Pasteurella multocida ATCC 6587; assay type: functional
# [9] = system: Vibrio cholerae; experiment: Comparative in vitro antibacterial activity with trimethoprim against Vibrio cholerae ATCC 14035; assay type: functional
# [10] = system: Proteus mirabilis; experiment: Comparative in vitro antibacterial activity with trimethoprim against Proteus mirabilis S2409; assay type: functional
# [11] = system: Shigella flexneri; experiment: Comparative in vitro antibacterial activity with trimethoprim against Shigella flexneri CN6007; assay type: functional
# [12] = system: Serratia marcescens; experiment: Comparative in vitro antibacterial activity with trimethoprim against Serratia marcescens CN2398; assay type: functional
# [13] = system: Proteus vulgaris; experiment: Comparative in vitro antibacterial activity with trimethoprim against Proteus vulgaris CN329; assay type: functional
# [14] = system: Enterococcus faecalis; experiment: Comparative in vitro antibacterial activity with trimethoprim against Streptococcus faecalis CN478; assay type: functional
# [15] = system: Klebsiella pneumoniae; experiment: Comparative in vitro antibacterial activity with trimethoprim against Klebsiella pneumoniae CN3632; assay type: functional
# [16] = system: Staphylococcus aureus; experiment: Comparative in vitro antibacterial activity with trimethoprim against Staphylococcus aureus CN491; assay type: functional
# [17] = system: Streptococcus agalactiae; experiment: Comparative in vitro antibacterial activity with trimethoprim against Streptococcus agalactiae CN1143; assay type: functional
# [18] = system: Citrobacter freundii; experiment: Comparative in vitro antibacterial activity with trimethoprim against Citrobacter freundii 2200/77; assay type: functional
# [19] = system: Mycolicibacterium smegmatis; experiment: Comparative in vitro antibacterial activity with trimethoprim against Mycobacterium smegmatis S 3254; assay type: functional
compound,measurement,setting,value
COc1cc(Cc2cnc(N)nc2N)cc2cccnc12,MIC,[1],3 µg/mL
same,MIC,[2],3 µg/mL
same,MIC,[3],3 µg/mL
same,MIC,[4],3 µg/mL
same,IC50,[5],12 µM
same,MIC,[6],3 µg/mL
same,MIC,[7],30 µg/mL
same,MIC,[8],3 µg/mL
same,MIC,[9],1 µg/mL
same,MIC,[10],3 µg/mL
same,MIC,[11],3 µg/mL
same,MIC,[12],1 µg/mL
same,MIC,[13],3 µg/mL
same,MIC,[14],3 µg/mL
same,MIC,[15],3 µg/mL
same,MIC,[16],3 µg/mL
same,MIC,[17],3 µg/mL
same,MIC,[18],10 µg/mL
same,MIC,[19],1 µg/mL
COc1cc(Cc2cnc(N)nc2N)cc2c(C)ccnc12,MIC,[1],1 µg/mL
same,MIC,[2],1 µg/mL
same,MIC,[3],1 µg/mL
same,MIC,[4],3 µg/mL
same,MIC,[6],1 µg/mL
same,MIC,[7],3 µg/mL
same,MIC,[8],1 µg/mL
same,MIC,[9],0.3 µg/mL
same,MIC,[10],1 µg/mL
same,MIC,[11],1 µg/mL
same,MIC,[12],1 µg/mL
same,MIC,[13],1 µg/mL
same,MIC,[14],1 µg/mL
same,MIC,[15],1 µg/mL
same,MIC,[16],0.3 µg/mL
same,MIC,[17],1 µg/mL
same,MIC,[18],3 µg/mL
same,MIC,[19],0.3 µg/mL
Cc1ccnc2ccc(Cc3cnc(N)nc3N)c(N)c12,MIC,[1],300 µg/mL
same,MIC,[2],100 µg/mL
same,MIC,[3],30 µg/mL
same,MIC,[4],100 µg/mL
same,IC50,[5],15 µM
same,MIC,[6],100 µg/mL
same,MIC,[7],> 100 µg/mL
same,MIC,[8],300 µg/mL
same,MIC,[9],100 µg/mL
same,MIC,[10],30 µg/mL
same,MIC,[11],100 µg/mL
same,MIC,[12],> 10 µg/mL
same,MIC,[13],> 100 µg/mL
same,MIC,[14],10 µg/mL
same,MIC,[15],100 µg/mL
same,MIC,[16],30 µg/mL
same,MIC,[17],100 µg/mL
same,MIC,[18],100 µg/mL
same,MIC,[19],100 µg/mL
COc1cc(Cc2cnc(N)nc2N)cc2c(C)cc(C)nc12,MIC,[1],3 µg/mL
same,MIC,[2],1 µg/mL
same,MIC,[3],0.1 µg/mL
same,MIC,[4],3 µg/mL
same,IC50,[5],43 µM
same,MIC,[6],3 µg/mL
same,MIC,[7],3 µg/mL
same,MIC,[8],1 µg/mL
same,MIC,[9],0.3 µg/mL
same,MIC,[10],0.3 µg/mL
same,MIC,[11],3 µg/mL
same,MIC,[12],1 µg/mL
same,MIC,[13],3 µg/mL
same,MIC,[14],1 µg/mL
same,MIC,[15],1 µg/mL
same,MIC,[16],0.3 µg/mL
same,MIC,[17],1 µg/mL
same,MIC,[18],3 µg/mL
same,MIC,[19],1 µg/mL
Nc1ncc(Cc2ccc3ncccc3c2)c(N)n1,MIC,[1],3 µg/mL
same,MIC,[2],10 µg/mL
same,MIC,[3],3 µg/mL
same,MIC,[4],10 µg/mL
same,IC50,[5],18 µM
same,MIC,[6],3 µg/mL
same,MIC,[7],10 µg/mL
same,MIC,[8],10 µg/mL
same,MIC,[9],3 µg/mL
same,MIC,[10],3 µg/mL
same,MIC,[11],10 µg/mL
same,MIC,[12],3 µg/mL
same,MIC,[13],10 µg/mL
same,MIC,[14],3 µg/mL
same,MIC,[15],3 µg/mL
same,MIC,[16],30 µg/mL
same,MIC,[17],3 µg/mL
same,MIC,[18],10 µg/mL
same,MIC,[19],0.3 µg/mL
CCOC(=O)C1CNc2c(cc(Cc3cnc(N)nc3N)cc2OC)C1 (stereo unspecified),MIC,[1],10 µg/mL
same,MIC,[2],100 µg/mL
same,MIC,[3],3 µg/mL
same,MIC,[4],30 µg/mL
same,IC50,[5],44 µM
same,MIC,[6],30 µg/mL
same,MIC,[7],> 100 µg/mL
same,MIC,[8],30 µg/mL
same,MIC,[9],30 µg/mL
same,MIC,[10],> 30 µg/mL
same,MIC,[11],10 µg/mL
same,MIC,[12],> 10 µg/mL
same,MIC,[13],> 100 µg/mL
same,MIC,[14],30 µg/mL
same,MIC,[15],100 µg/mL
same,MIC,[16],30 µg/mL
same,MIC,[17],10 µg/mL
same,MIC,[18],10 µg/mL
same,MIC,[19],30 µg/mL
COCCOc1cc(Cc2cnc(N)nc2N)cc2cccnc12,MIC,[1],100 µg/mL
same,MIC,[2],100 µg/mL
same,MIC,[3],3 µg/mL
same,MIC,[4],100 µg/mL
same,IC50,[5],9.9 µM
same,MIC,[6],100 µg/mL
same,MIC,[7],30 µg/mL
same,MIC,[8],30 µg/mL
same,MIC,[9],30 µg/mL
same,MIC,[10],> 30 µg/mL
same,MIC,[11],100 µg/mL
same,MIC,[12],> 10 µg/mL
same,MIC,[13],> 100 µg/mL
same,MIC,[14],3 µg/mL
same,MIC,[15],100 µg/mL
same,MIC,[16],10 µg/mL
same,MIC,[17],10 µg/mL
same,MIC,[18],300 µg/mL
same,MIC,[19],3 µg/mL
COc1cc(Cc2cnc(N)nc2N)cc2c1NCCC2C (stereo unspecified),MIC,[1],3 µg/mL
same,MIC,[2],10 µg/mL
same,MIC,[3],1 µg/mL
same,MIC,[4],10 µg/mL
same,MIC,[6],3 µg/mL
same,MIC,[7],10 µg/mL
same,MIC,[8],3 µg/mL
same,MIC,[9],1 µg/mL
same,MIC,[10],3 µg/mL
same,MIC,[11],10 µg/mL
same,MIC,[12],3 µg/mL
same,MIC,[13],10 µg/mL
same,MIC,[14],1 µg/mL
same,MIC,[15],3 µg/mL
same,MIC,[16],1 µg/mL
same,MIC,[17],1 µg/mL
same,MIC,[18],10 µg/mL
same,MIC,[19],1 µg/mL
Cc1ccnc2c(N)cc(Cc3cnc(N)nc3N)cc12,MIC,[1],10 µg/mL
same,MIC,[2],10 µg/mL
same,MIC,[4],30 µg/mL
same,IC50,[5],32 µM
same,MIC,[6],10 µg/mL
same,MIC,[7],30 µg/mL
same,MIC,[8],10 µg/mL
same,MIC,[9],3 µg/mL
same,MIC,[10],1 µg/mL
same,MIC,[11],30 µg/mL
same,MIC,[12],30 µg/mL
same,MIC,[13],3 µg/mL
same,MIC,[14],3 µg/mL
same,MIC,[15],10 µg/mL
same,MIC,[16],3 µg/mL
same,MIC,[17],10 µg/mL
same,MIC,[18],10 µg/mL
same,MIC,[19],10 µg/mL
Nc1ncc(Cc2ccc3c(c2)CCCN3)c(N)n1,MIC,[1],10 µg/mL
same,MIC,[2],10 µg/mL
same,MIC,[3],10 µg/mL
same,MIC,[4],10 µg/mL
same,IC50,[5],140 µM
same,MIC,[6],30 µg/mL
same,MIC,[7],10 µg/mL
same,MIC,[8],10 µg/mL
same,MIC,[9],10 µg/mL
same,MIC,[10],10 µg/mL
same,MIC,[11],30 µg/mL
same,MIC,[12],10 µg/mL
same,MIC,[13],10 µg/mL
same,MIC,[14],10 µg/mL
same,MIC,[15],10 µg/mL
same,MIC,[16],30 µg/mL
same,MIC,[17],10 µg/mL
same,MIC,[18],10 µg/mL
same,MIC,[19],3 µg/mL
Cc1ccnc2ccc(Cc3cnc(N)nc3N)cc12,MIC,[1],3 µg/mL
same,MIC,[2],1 µg/mL
same,MIC,[3],3 µg/mL
same,MIC,[4],3 µg/mL
same,IC50,[5],22 µM
same,MIC,[6],3 µg/mL
same,MIC,[7],1 µg/mL
same,MIC,[8],1 µg/mL
same,MIC,[9],1 µg/mL
same,MIC,[10],1 µg/mL
same,MIC,[11],3 µg/mL
same,MIC,[12],1 µg/mL
same,MIC,[13],1 µg/mL
same,MIC,[14],1 µg/mL
same,MIC,[15],1 µg/mL
same,MIC,[16],1 µg/mL
same,MIC,[17],1 µg/mL
same,MIC,[18],3 µg/mL
same,MIC,[19],1 µg/mL
